For series [1], the system named is MiaPaCa-2 pancreatic carcinoma. Put plainly: MTS growth inhibition assay, single agent studies. The format is cell-based. To be noted: Homo sapiens, MIA PaCa-2, 72 h; 3 days in culture. Here is the method:
(§1) Human tumor cell lines MiaPaCa-2 pancreatic carcinoma (mutant ras, gemcitabine sensitive) and HT-29 colon carcinoma (polyposis type, mutant p53 and APC, chemosensitive) were purchased from the ATCC (Rockville, Md.). […] Cells grown to 70% confluency were trypsinized and resuspended into cell culture medium at a concentration of 10^5 cells/ml. On Day 0 of the experiment, a […] aliquot of tumor cells was plated into internal wells of a 96-well microtiter plate at an appropriate density (in the range of 2×10^3 to 10^4 cells/well). The cells were incubated for 24 hours to allow maximum adhesion prior to exposure with test agents. […] The starting concentration and the test range of 5-FU were determined empirically for each cell line. Treatment with 5-FU started on Day 1. There were 6 replicates for each dose determination. Both drugs were added once without the medium change. After 3 days in culture, the number of proliferating cells was measured by the MTS assay described below. The test was repeated twice to quantify growth inhibitory activity. […] IC50 values were generated from two separate experiments. […] The MTS reagent is a tetrazolium compound and an electron coupling reagent. The MTS tetrazolium compound is bioreduced by cells into a colored formazan product soluble in cell culture medium. The conversion is catalyzed by NADPH or NADH produced by dehydrogenase enzymes in metabolically active cells. The MTS assay is a colorimetic assay based upon the ability of viable cells to convert […] to formazan; the quantity of formazan product, as measured by the 490 nm absorbance, is directly proportional to the number of viable cells in culture. An automated procedure determines the IC50 value. Exponentially growing cells in […] of cell culture medium are plated on Day 0 in 96-well microtiter plates at a concentration of 10^4 cells/well. […] At the end of the designated time period, 100 microL of growth medium is removed. […] Absorbance is documented on a Dynex HD microplate reader at a wavelength of 490 nm. The data was calculated as percent growth inhibition, wherein 0% represents the mean value in wells to which only vehicle (cell culture medium) was added. The % Growth Inhibition was calculated as follows: % Growth Inhibition=(1−(ODtest/ODvehicle)×100, where ODtest is the optical density of the tested sample, and ODvehicle is the optical density of the vehicle in which each respective drug is dissolved. […] To determine the interaction, there must be a significant difference that exists between the combination absorbance values and both endpoint values. For example, if the values are statistically (p<0.05) above or below the absorbance values of either agent tested alone, then antagonism or synergy is described. […]
For orientation: Formazan colour is commonly taken as a measure of viable cells.

Another series has as its system HT-29 colon carcinoma. Put plainly: MTS growth inhibition assay, single agent studies. The format is cell-based. Conditions: Homo sapiens, HT-29, 72 h; 3 days in culture. As to the method: as §1
For another series, the system named is NCI-H23 cells. The series can be described thus: Sulforhodamine B (SRB) growth inhibition assay. The format is cell-based. Conditions: Homo sapiens, 72 hours treatment. Here is the method: (§2) The human lung tumor cell lines were MV522 and NCI-H23, both of which were derived from tumors displaying histopathology of adenocarcinoma, one of the at least three types of NSCLC. The NCI-H23 tumor cell line is available from the ATCC (Rockville, Md.), and the MV522 cell line was obtained by Dr. M. J. Kelner of the University of California. The cells were cultured in RPMI medium (Nova Tech, Grand Island, N.Y.) at 37° C. in a humidified atmosphere containing 5% CO2. For passaging, cells grown in 75 cm^2 flasks (60–70% confluency) were washed with PBS and dislodged from the flasks with trypsin (Gibco BRL) before being passaged. Cells used for the experiments described below were centrifuged and resuspended in cell culture medium at a concentration of 10^5 cells/mL. A 100 microliter aliquot (ten thousand cells) was plated into each well of a 96-well microtiter plate.
(§3) Docetaxel (Taxotere™, Aventis Pharmaceuticals, Inc.) solubilized in 100% DMSO and diluted 1000×to the desired concentration (0.1% DMSO final concentration), was used as a positive control. […] Exponentially growing cells in 100 microliters of cell culture medium were plated on Day 0 in 96-well microtiter plates at a concentration of 10^4 cells/well. On Day 1, drugs were added to each well of the microtiter plate with the designated concentration in 100 microliter aliquots of cell culture medium and incubated at 37° C. in a humidified incubator (5% CO2/95% HEPA filtered air). After three days of treatment, adherent cells were fixed by adding 50 microliters of cold 50% trichloracetic acid to each well and incubating for one hour at 4° C. The supernatant was discarded, and plates were washed twice with de-ionized water and air-dried. One hundred microliters of SRB solution were added to each well of the plate and incubated ten minutes at room temperature. Unbound SRB stain was removed by washing twice with 1% acetic acid. The bound SRB stain was solubilized with 10 mM Tris buffer, and the optical densities read at a single wavelength of 515 nm.
(§4) IC50 values (50% effective dose) were calculated from two different experiments, each of which involved 6 replicates for each dose tested. […]

The subject of a further series is MV522 cells. The series can be described thus: Sulforhodamine B (SRB) growth inhibition assay. To be noted: Homo sapiens, 72 hours treatment. The format is cell-based. As to the method: as §2, §3, §4
Series [2] can be described thus: MTD study of combined 2-DG/cisplatin treatment versus cisplatin alone (TH-PT-002). To be noted: cisplatin 2, 3, or 4 mg/kg/dose i.p. qd Days 6–10 with or without 2-DG 2000 mg/kg/dose oral qd days 1–10. Here is the method:
The maximum tolerated dose determination for this study was conducted using female nude mice (nu/nu) between 5 and 6 weeks of age weighing approximately 20 g (Harlan, Inc., Madison, Wis.). Dosing began on Day 1. […] […] Individual mouse weights in grams were recorded twice weekly throughout the study. The average weight per group was calculated, and weight gain or loss was determined by comparing the current Day's average to the Day 1 average for that same group. The study was terminated on Day 21.

The subject of series [3] is MV522 human tumor carcinomas. The series can be described thus: Tumor growth delay study in mouse MV522 xenograft model (TH-PT-001). As to the method: Female nude mice (nu/nu) between 5 and 6 weeks of age and weighing approximately 20 g were obtained from Harlan, Inc. (Madison, Wis.). Animals were implanted subcutaneously by trocar with fragments of Mv522 human tumor carcinomas harvested from subcutaneously growing tumors in nude mice hosts. When the tumors were approximately 71 mg in size (11 days following inoculation), the animals were pair-matched into treatment and control groups. Each group contained 10 tumored mice. Each mouse was ear-tagged and followed individually throughout the experiment. Initial doses were given on Day 1 following pair-matching. […] Sterile water was administered orally bid×5 to end to serve as the negative control. Mice were weighed twice weekly, and tumor measurements were obtained using calipers twice weekly, starting on Day 1. These tumor measurements were converted to mg tumor weight by the standard formula (W^2×L)/2. Each mouse was sacrificed when its tumor weight reached 1000 mg. In this test, the average day of sacrifice was determined for all groups and the tumor growth delay (TGD) for each treatment group, compared to the control group, was calculated.
All of these studies are outlined in the following table.

The subject of series [4] is H460, H23, H522 and H661 cells. The series can be described thus: Inhibition of proliferation of NSCLC tumor cell lines. Conditions: most human NSCLC tumor cell lines. The format is cell-based.
The next series has as its system MV522 xenograft. The series can be described thus: 2-DG/Paclitaxel dosing study in mouse MV522 xenograft model. The format is in vivo. To be noted: paclitaxel i.p.
Series [5] relates to MV522 non-small cell lung cancer (NSCLC) xenograft. The series can be described thus: Third efficacy study, paclitaxel alone or with oral 2-DG, tumor growth delay (TH-PT-003). The format is in vivo, nude mice. Conditions: paclitaxel alone 10 mg/kg/dose i.p. days 6–10. As to the method:
An increase in efficacy was defined as a significant (P<0.05) increase in the time for the tumor to grow to 1000 mg (tumor growth delay—TGD) compared to vehicle alone or, for combination treatment groups, chemotherapy alone, as calculated using a two-tailed t-test. Female nude mice, ten per treatment arm, were implanted subcutaneously (s.c.) with trocar fragments of MV522 tumors harvested from s.c. tumors growing in nude mice hosts. Body weights and tumor measurements were taken biweekly. When tumors reached ˜70 mg, treatment was started. Mice were sacrificed when their individual tumor reached ˜1000 mg. All doses are reported as mg/kg/dose. […] The mice were then dosed i.p. with 10 mg/kg/dose paclitaxel once a day on days 6–10. […] Dosing with paclitaxel began when the tumors were approximately 200 mg.

A further series relates to H2347 cells. Put plainly: Inhibition of proliferation of Taxol-resistant cell line. The format is cell-based. Conditions: Homo sapiens, NCI-H2347.
The subject of series [6] is human non-small cell lung cancer (NSCLC) tumor cell lines. Put plainly: Proliferation with simultaneous 2-DG and Taxol treatment. Conditions: 200 nM Taxol alone, one test. The format is cell-based.

From US6979675B2, “Treatment of cancer with 2-deoxyglucose” (Threshold Pharmaceuticals, Inc., priority 2003, dated 2005) come the findings set out here.

As usually defined, the IC50 is the concentration at which inhibition is half-maximal.

Turning to `O=c1[nH]cc(F)c(=O)[nH]1` [5-FU, 5-fluoro-2,4(1H,3H)-pyrimidinedione, reference compound], the IC50 in series [1] was 2.58 µg/mL; in the series with HT-29 colon carcinoma, 1.9 µg/mL.
With `CC(=O)O[C@@]12CO[C@@H]1C[C@H](O)[C@@]1(C)C(=O)[C@H](O)C3=C(C)[C@@H](OC(=O)[C@H](O)[C@@H](NC(=O)OC(C)(C)C)c4ccccc4)C[C@@](O)([C@@H](OC(=O)c4ccccc4)[C@H]21)C3(C)C` [Docetaxel, reference compound], the half-inhibitory concentration (IC50) was 1.64 ± 0.211 nM in the series with NCI-H23 cells and 2.11 ± 0.601 nM in the series on MV522 cells.
For the molecule `N.N.[Cl][Pt][Cl]` [cisplatin, cis-Diaminedichloroplatinum (II)], in series [2], the “deaths during the 21 days of the study” value is recorded as “No mice died”. Moreover, the “TGD (tumor growth delay)” value in series [3] (cisplatin 1 mg/kg i.p. Days 1–5) worked out at 15.8 days; in series [3] (cisplatin 2 mg/kg i.p. Days 1–5) it was 32.6 days. Moreover, the “mean day of sacrifice” value was 42.3+/−0.9 in series [3] (cisplatin single agent 1 mg/kg i.p. Days 1–5) and 59.1+/−5.7 in series [3] (cisplatin single agent 2 mg/kg i.p. Days 1–5). In addition, the complete regressions entry in series [3] (high dose cisplatin group (2 mg/kg), 10 mice) is listed as “Two mice”.
In the case of `CC(=O)O[C@H]1C(=O)[C@@]2(C)[C@H]([C@H](OC(=O)c3ccccc3)[C@]3(O)C[C@H](OC(=O)[C@H](O)[C@@H](NC(=O)c4ccccc4)c4ccccc4)C(C)=C1C3(C)C)[C@]1(OC(C)=O)CO[C@@H]1C[C@@H]2O` [paclitaxel], the IC50 is 50 to 200 nM in series [4] and over 1000 nM with H2347 cells. In the series with MV522 xenograft, the “efficacy of single dose 30 mg/kg versus 5 doses at 10 mg/kg” value was “more effective”. In addition, the deaths entry in series [5] is “One death per group”. This molecule also gave an inhibition of proliferation in series [6] of about 20%. In addition, the toxic deaths entry in series [3] (paclitaxel 16 mg/kg i.p. Days 1–5) is “no toxic deaths”. Besides, the complete regression entry in series [3] (paclitaxel 16 mg/kg i.p. Days 1–5, 10 mice) is reported as “one mouse experiencing a complete regression”. Moreover, the “mean day of sacrifice” value in series [3] (paclitaxel 16 mg/kg i.p. Days 1–5, sacrifice at tumor weight 1000 mg) was 56.8+/−4.3. Also, the “TGD (tumor growth delay)” value in series [3] (paclitaxel 16 mg/kg i.p. Days 1–5, vs negative control) stood at 34.4 days.
